From patent publication US11058677B2, “LFA-1 inhibitor formulations” (Novartis AG, priority 2012, dated 2021) come the findings set out here.

A short description of data set [1]: Stability of three different formulations (total degradates at 40° C.). Format: physicochemical. As to the method:
Three separate solutions of the compound of Formula 1 of same concentration were prepared. The first solution (pH=6.0) was stored at 40° C. without any further additives for about four months. The second solution (pH=6.0) was further treated with a metabisulfite salt and allowed to stand at 40° C. for about four months. The pH of the third solution was buffered to pH 7.5 and allowed to stand at 40° C. for about 4 months without any further additives. The percentage of total degradates was measured for each solution after about every 4 weeks. The results of this experiment are graphically represented in FIG. 2.

A short description of data set [2]: Effect of antioxidants on stability of 3% w/v solutions. The format is physicochemical. The note with it: pH 6.5 with 0.3% w/v thiosulfate salt (40, 50, 60° C.) vs pH 7.5 without antioxidant at 40° C., about nine weeks. As for the experimental part: Four separate solutions containing 3% w/v of the compound of Formula 1 were prepared. The pH of the first solution was buffered to 6.5, 0.3% w/v thiosulfate salt was added and the solution was stored at 50° C. for about nine weeks. The pH of the second solution was adjusted to 6.5, 0.3% thiosulfate salt was added and the solution was stored at 40° C. for about nine weeks. The pH of the third solution was buffered to 6.5, 0.3% thiosulfate salt was added and the solution was allowed to stand at 60° C. for about nine […]. No antioxidant was added to the fourth solution which was buffered to a pH of 7.5 and allowed to stand at a temperature of 40° C. for about 9 weeks. The percentage of total degradates was measured for each solution after about every 2-4 weeks. The results of this experiment are graphically represented in FIG. 3.

Data set [3] in a line: Degradation profile of 1.0% and 5.0% w/v solutions (degradation mechanism). Format: physicochemical. An excerpt:
The results of these experiments are graphically represented in FIG. 7.

Data set [4] can be described thus: Effect of concentration (and EDTA) on formulation stability. The note with it: solutions with and without 0.1% EDTA. The format is physicochemical. As to the method:
Three different concentrations of the compound of Formula 1, 1.0%, 3.0% and 5.0% were studied. The samples were monitored at a temperature of 40° C. The pH of the three solutions was maintained in the range of 7.0-7.5. The total % degradation of the three solutions was monitored with respect to time. The results of this experiment are graphically represented in FIG. 4.
Solutions both with and without 0.1% EDTA were monitored.

Data set [5] can be described thus: Individual degradates A and B by HPLC analysis on storage. Format: physicochemical. The note with it: 5.0% w/v solutions, 40° C. vs 60° C., about nine weeks. As to the method: Two solutions containing 5.0% w/v of the compound of Formula 1 were prepared. The first solution was stored at 40° C. for about 9 weeks and the second solution was stored at 60° C. for a period of about nine weeks. The percentage of each of the two major degradates of Formula 1 (degradate A and degradate B) was measured by HPLC analysis for each solution after about every 2-4 weeks. The results of this experiment are graphically represented in FIG. 5.

Data set [6] is described as follows: Effect of sparging with nitrogen on stability. The format is physicochemical. The note with it: about 40° C., about four months. As for the experimental part:
Four separate solutions of the compound of Formula 1 were prepared. The pH of the first solution was buffered to 6.0. The pH of the second solution was also buffered to 6.0 and the solution was additionally sparged with nitrogen. The pH of the third solution was buffered to 7.0. The pH of the fourth solution was also buffered to 7.0 and the solution was further sparged with nitrogen. All the four solutions were stored at a temperature of about 40° C. for a period of about four months. The percentage of total degradates was measured for each solution after about every four weeks. The results of this experiment are graphically represented in FIG. 8.

Data set [7] can be described thus: Stability of 5.0% solution (percentage of total degradates on storage). The format is physicochemical. As to conditions: for individual degradate versus ICH qualification threshold: about 2 months. As for the experimental part:
Three separate 5.0% aqueous solutions of the compound of Formula 1 were prepared and allowed to stand at temperatures of about 5° C., 25° C., and 40° C. respectively for a period of about 15 months. The percentage of total degradates was measured for each solution after about every 4 weeks. The results of this experiment are graphically represented in FIG. 1.

Data set [8] in a line: Effect of pH on stability, no antioxidant (one month). The format is physicochemical. As to conditions: pH 6.0, 7.0, 7.5, 8.0, 8.5, no antioxidant, about 40° C. As for the experimental part: Five different solutions of the compound of Formula 1 were prepared. The first solution was buffered to a pH of 6.0, the second solution was buffered to pH 7.0, the third solution was buffered to pH 7.5, the fourth solution was buffered to pH 8.0, and the fifth solution was buffered a pH of 8.5. No antioxidant was added and all solutions were stored at a temperature of about 40° C. for a period of about one month after which the percentage of total degradates was measured for each solution. The results of this experiment are graphically represented in FIG. 12.

A short description of data set [9]: Effect of pH on stability of nitrogen sparged solutions (four months). Format: physicochemical. The note with it: pH 6.0, 7.0, 7.5, about 40° C. As to the method: Three solutions of the compound of Formula 1 were prepared. The pH of the first solution was buffered to 6.0, the pH of the second solution was also buffered to 7.0 and pH of the third solution was buffered to 7.5. All the three solutions were sparged with nitrogen were stored at a temperature of about 40° C. for a period of about four months. The percentage of total degradates was measured for each solution after about every four weeks. The results of this experiment are graphically represented in FIG. 9.

The target in data set [10] is LFA-1 interactions with ICAM-1 (Homo sapiens, UniProt P05107+P20701). The data set can be described thus: Inhibition of LFA-1 interactions with ICAM-1.
Sequence of LFA-1 interactions with ICAM-1 (P20701 26-1170): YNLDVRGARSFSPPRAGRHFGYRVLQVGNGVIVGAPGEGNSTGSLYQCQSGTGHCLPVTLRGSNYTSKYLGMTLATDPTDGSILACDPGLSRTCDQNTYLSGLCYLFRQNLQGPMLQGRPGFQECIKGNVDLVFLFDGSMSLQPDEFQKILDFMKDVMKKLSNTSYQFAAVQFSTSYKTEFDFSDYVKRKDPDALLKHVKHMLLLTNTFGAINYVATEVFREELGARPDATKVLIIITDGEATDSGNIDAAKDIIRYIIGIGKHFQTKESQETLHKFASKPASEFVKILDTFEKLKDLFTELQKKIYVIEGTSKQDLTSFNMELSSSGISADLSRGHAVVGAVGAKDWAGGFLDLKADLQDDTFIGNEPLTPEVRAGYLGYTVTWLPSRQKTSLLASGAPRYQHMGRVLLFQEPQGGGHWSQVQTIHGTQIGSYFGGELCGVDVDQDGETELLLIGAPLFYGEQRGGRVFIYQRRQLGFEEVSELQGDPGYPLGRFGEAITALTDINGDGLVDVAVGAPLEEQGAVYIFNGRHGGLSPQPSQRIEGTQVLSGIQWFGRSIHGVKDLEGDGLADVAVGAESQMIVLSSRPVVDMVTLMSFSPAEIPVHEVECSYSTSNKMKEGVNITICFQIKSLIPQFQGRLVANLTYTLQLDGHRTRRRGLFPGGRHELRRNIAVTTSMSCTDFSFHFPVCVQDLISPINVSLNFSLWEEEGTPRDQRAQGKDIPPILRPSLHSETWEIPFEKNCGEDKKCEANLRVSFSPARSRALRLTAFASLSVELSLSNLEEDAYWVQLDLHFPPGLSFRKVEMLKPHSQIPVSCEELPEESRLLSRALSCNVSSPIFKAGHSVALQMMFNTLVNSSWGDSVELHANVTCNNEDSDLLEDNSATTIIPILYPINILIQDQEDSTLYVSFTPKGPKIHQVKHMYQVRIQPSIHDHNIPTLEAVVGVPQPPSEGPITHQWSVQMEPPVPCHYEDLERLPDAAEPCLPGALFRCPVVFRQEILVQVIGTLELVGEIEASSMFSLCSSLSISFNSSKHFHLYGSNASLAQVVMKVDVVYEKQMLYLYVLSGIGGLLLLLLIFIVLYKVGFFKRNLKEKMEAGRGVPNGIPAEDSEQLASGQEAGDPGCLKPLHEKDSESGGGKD
Sequence of LFA-1 interactions with ICAM-1 (P05107 23-769): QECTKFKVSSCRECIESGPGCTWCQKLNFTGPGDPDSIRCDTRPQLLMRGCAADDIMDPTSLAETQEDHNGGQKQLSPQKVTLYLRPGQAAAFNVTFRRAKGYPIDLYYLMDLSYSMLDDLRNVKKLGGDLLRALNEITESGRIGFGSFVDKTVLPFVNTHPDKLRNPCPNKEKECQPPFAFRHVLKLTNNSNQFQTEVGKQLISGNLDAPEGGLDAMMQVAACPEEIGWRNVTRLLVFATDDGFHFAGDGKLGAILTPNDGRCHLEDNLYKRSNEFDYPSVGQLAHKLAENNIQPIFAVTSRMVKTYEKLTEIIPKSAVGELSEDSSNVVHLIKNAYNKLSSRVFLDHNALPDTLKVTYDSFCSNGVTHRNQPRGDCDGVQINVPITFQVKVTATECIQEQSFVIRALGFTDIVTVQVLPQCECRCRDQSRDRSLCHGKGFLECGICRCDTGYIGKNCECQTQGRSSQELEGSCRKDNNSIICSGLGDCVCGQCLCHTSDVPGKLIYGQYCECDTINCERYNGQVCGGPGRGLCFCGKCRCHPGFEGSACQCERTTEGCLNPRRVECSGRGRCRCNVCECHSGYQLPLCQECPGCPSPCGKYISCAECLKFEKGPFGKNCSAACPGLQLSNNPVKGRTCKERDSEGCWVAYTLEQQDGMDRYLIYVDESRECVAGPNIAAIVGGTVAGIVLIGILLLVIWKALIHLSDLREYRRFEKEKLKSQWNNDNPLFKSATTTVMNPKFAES
A further data set is described as follows: Systemic clearance. The note with it: in vivo.
Data set [11] in a line: Effect of pH on stability of formulation with antioxidant (metabisulfite). As to conditions: metabisulfite salt, pH 6.0 and 7.0, about 40° C., about four months. Format: physicochemical. As for the experimental part: Two solutions of the compound of Formula 1 were prepared. The pH of the first solution was buffered to 6.0 and the pH of the second solution was also buffered to 7.0. A metabisulfite salt was added to both the solutions and were stored at a temperature of about 40° C. for a period of about four months. The percentage of total degradates was measured for each solution after about every four weeks. The results of this experiment are graphically represented in FIG. 10.

Data set [12] in a line: Effect of various antioxidants on stability at pH 6.5. Format: physicochemical. As to conditions: pH about 6.5, about 40° C., about one month, sodium thiosulfate (0.3% w/v) alone vs bisulfite, acetylcysteine, thioglycerol, Vitamin E TPGS, ascorbic acid. As for the experimental part: Seven different solutions of Formula 1, buffered at a pH of about 6.5, were prepared. Sodium bisulfite (0.2% w/v) and sodium thiosulfate (0.3% w/v) were added to the first solution, sodium bisulfite (0.2% w/v) was added to the second solution, sodium thiosulfate (0.3% w/v) was added to the third solution, acetylcysteine (0.2% w/v) was added to the fourth solution, thioglycerol (0.2% w/v) was added to the fifth solution, Vitamin E TPGS ([…]) was added to the sixth solution, and ascorbic acid (0.3% w/v) was added to the seventh solution. All solutions were stored at a temperature of about 40° C. for a period of about one month after which the percentage of total degradates was measured for each solution. The results of this experiment are graphically represented in FIG. 11.

As to `CS(=O)(=O)c1cccc(C[C@H](NC(=O)c2c(Cl)cc3c(c2Cl)CCN(C(=O)c2ccc4ccoc4c2)C3)C(=O)O)c1` [compound of Formula 1], the “stability (total degradates), effect of added antioxidant” value is recorded as “increases the stability” in [1] (pH 6.0 with metabisulfite salt vs pH 6.0 without additives, about four months) and “increased the stability” in [2]. Moreover, in [1] (pH 7.5 without antioxidant vs pH 6.0 without additives, about 4 months), the “stability (total degradates), effect of increasing pH” value is given as “increases the stability”. Also, the “rate of degradation, 5.0% w/v vs 1.0% w/v solution” value in data set [3] (total percentage degradation about every four weeks for six months) is “greater than the rate of degradation of the 1.0 w/v solution”. The “final level of degradation, 5.0% w/v vs 1.0% w/v solution” value in data set [3] (when a limiting reactant such as oxygen is reduced, six months) is “appear to reach the same level of degradation”. Besides, the “stability, effect of presence or absence of EDTA” value in data set [4] is on record as “did significantly change the stability”. Moreover, in [5], the “% formation of degradates A and B, effect of storage temperature” value is listed as “did not significantly affect”. The “stability (total degradates), effect of nitrogen sparging” value in [6] (pH 6.0 and pH 7.0, sparged vs not sparged) is listed as “better stability”. The “stability (total degradates), pH 7.0 vs pH 6.0” value in [6] (with and without nitrogen sparging) is listed as “improved stability”. The “individual degradant versus ICH qualification threshold” value in data set [7] (5.0% aqueous solution stored at 5° C., about 6 months) was “no individual degradant above the ICH qualification threshold”. The total degradation product entry in data set [7] (5.0% aqueous solution stored at 5° C., after about 6 months) was “about 5%”; in data set [7] (5.0% aqueous solution stored at 25° C., in about 2 months) it was 5%; in data set [7] (5.0% aqueous solution stored at 40° C., in about 2 months) it was 5%. Moreover, the “individual degradate versus ICH qualification threshold” value in data set [7] (5.0% aqueous solution stored at 25° C.) and in [7] (5.0% aqueous solution stored at 40° C.) was “no individual degradate above the ICH qualification threshold” each time. The entries for the “stability (total degradates), effect of pH” value in [8] and in data set [9] were “higher pH exhibited better stability” and “higher pH exhibited improved stability”, respectively. In addition, the “inhibition of LFA-1 interactions with ICAM-1” value in [10] is listed as “effective inhibitor”. Moreover, the systemic clearance rate entry in “Systemic clearance” is listed as “rapid systemic clearance rate”. The “degradation and pH sensitivity of stability, effect of antioxidant” value in data set [11] was “significantly reduces both the degradation of Formula 1 and the sensitivity of the stability of Formula 1 to pH”. The “stability (total degradates), comparison of antioxidants” value in [12] is “best overall stability”.
